Common to all, as to assay: NCI anticancer screen, dose series, 48 h
Test [1] deals with SN12C renal.
Test [2] deals with CCRF-CEM leukemia.
The subject of test [3] is M14 melanoma.
The test system of test [4] is SNB-19 CNS.
Test [5] concerns OVCAR-3 ovarian.
Test [6] relates to K-562 leukemia.
In test [7] the test system is A498 renal.
The test system of test [8] is A549 NSCLC.
In test [9] the test system is NCI-H226 lung.
Test [10] relates to HOP-62 NSCLC.

Data on 15 molecules can be found in PubChem BioAssay (NCI).

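Protocol summary: plate cells (96-well), add compound at 5 concentrations, incubate 48 h, interpolate endpoints linearly. Abbreviation: GI50, concentration required for 50% inhibition of growth. TGI: total growth inhibition.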

As for `Cc1ccc(C(=O)N=Nc2c(O)[nH]c3ccc(Cl)cc23)cc1`, the GI50 is 8.7 µM in test [1]; 0.322 µM in [2]; 22.7 µM in test [3]; 45.6 µM in test [4]; 21.3 µM in [5]; 16.2 µM in test [6]. Besides, the GI50 in test [7] is 35.3 µM; in [8], 22.8 µM; in test [9], 7.4 µM. In addition, the TGI in [1] was 17.8 µM; in test [2], over 50 µM; in test [3], over 50 µM; in test [4], over 50 µM; in test [5], over 50 µM; in test [6], over 50 µM. Besides, the TGI is over 50 µM in test [7], over 50 µM in test [8] and 24.6 µM in test [9].
`CC(=O)NC1=C(Sc2ccc(Cl)cc2)C(=O)c2ccccc2C1=O`: the TGI was 16.2 µM in test [1]; 4.64 µM in [2]; 28.6 µM in test [4]; 7.07 µM in test [5]; 5.41 µM in test [6]; 16.4 µM in test [7]. For the same molecule, the TGI in test [8] is over 100 µM; in test [9] it was 24.2 µM.
In the case of `CN1C(=O)C(=CN(C)c2ccccc2)C(=O)N(C)C1=O`, the TGI in [1], in test [2], in [3], in [4], in [5] and in test [6] was over 100 µM each time. The TGI in test [7], in test [8] and in [9] was over 100 µM throughout.
As to `CC(=O)c1cccc(NC(=O)c2ccc(NC3=C(Cl)C(=O)N(Cc4ccccc4)C3=O)cc2)c1`, the GI50 was 1.92 µM in test [1]; 17.1 µM in test [3]; 32.8 µM in [4]; 9.57 µM in [5]; 8.37 µM in test [6]; 19.6 µM in [7]. Also, the figures for the GI50 in [8] and in [9] were 25.8 µM and 9.9 µM, respectively. Also, the TGI is 9.63 µM in [1]; 33.3 µM in test [3]; over 100 µM in test [4]; 22.7 µM in test [5]; over 100 µM in test [6]; 60.4 µM in [7]. The TGI in test [8] was over 100 µM; in test [9], 28.1 µM.
`Cc1cn2c(/C=N/N=C(N)N)c(-c3ccsc3)nc2s1`: the GI50 was 2.27 µM in test [1]; 2.54 µM in [2]; 11.5 µM in [3]; 7.31 µM in test [4]; 4.02 µM in [5]; 3.82 µM in test [6]. Besides, the figures for the GI50 in [7], in test [8] and in [9] were 28.3 µM, 17.1 µM and 15.5 µM, respectively. The TGI in [1] is 10.9 µM; in test [2] it was 6.21 µM; in test [3], 37.3 µM; in [4], 23.7 µM; in test [5], 13.4 µM; in test [6], over 100 µM. Also, the TGI in test [7] stood at 43.3 µM; in test [8], 34.7 µM; in test [9], 31.7 µM.
For the molecule `O=C(CC1C(=O)Nc2ccccc2S1(=O)=O)Nc1cccc(Cl)c1` (configuration not stated), the TGI in test [1] is 29.5 µM; in [2] it was 47.2 µM; in test [3], 42.1 µM; in test [4], 46.8 µM; in test [5], 29.6 µM; in test [6] it was 38.4 µM. Besides, the values for the TGI in test [7], in test [8] and in [9] were 39.1 µM, 40.8 µM and 35.8 µM, respectively.
Regarding `COc1ccc(-c2nnc(Nc3nc(O)c(C4=c5cc(F)ccc5=NC4=O)s3)o2)cc1`, the GI50 in [1] was 47 µM; in test [2], 28.8 µM; in test [10], 18.2 µM; in test [4], 48.2 µM; in [5] it was 14.8 µM; in test [6], 37.1 µM. Also, the values for the GI50 in [7], in test [8] and in test [9] were 41.7 µM, 64.6 µM and 46.3 µM, respectively. Further, the TGI in [1] is over 100 µM; in test [2], over 100 µM; in test [10] it was 43.7 µM; in [4], over 100 µM; in [5], 42.3 µM; in test [6] it was over 100 µM. Moreover, the TGI in test [7], in [8] and in [9] was over 100 µM in each case.
Take `N#C/C(=C\c1cccc2cnccc12)N1N=NC2C=CC=CC21` (configuration not stated): the GI50 in test [1] was 3.24 µM; in test [10], 2.95 µM; in test [3], 7.71 µM; in test [4], 6.29 µM; in test [5], 1.91 µM; in test [6], 2.85 µM. For the same molecule, the values for the GI50 in test [7], in test [8] and in [9] were 1.63 µM, 3.02 µM and 3.95 µM, respectively. Further, the TGI was over 100 µM in [1]; 46.1 µM in test [10]; over 100 µM in [3]; over 100 µM in [4]; 4.88 µM in test [5]; over 100 µM in [6]. In addition, the TGI in test [7] is 5.59 µM; in [8] it was over 100 µM; in [9], over 100 µM.
Regarding `Cn1c(C(C)(C)OC(=O)Oc2ccccc2)cnc1[N+](=O)[O-]`, the TGI in test [1], in test [10], in test [3], in test [4], in test [5] and in test [6] was over 100 µM each time. In addition, the TGI in test [7], in test [8] and in test [9] was over 100 µM each time.
As for `O=S(=O)(NCCO)c1cc[c]([Sb](=[O])([OH])[OH])cc1`, the GI50 in [1], in test [10], in [3], in test [4], in test [5] and in test [6] was over 100 µM each time. In addition, the GI50 in [7], in test [8] and in test [9] was over 100 µM each time. The TGI in test [1], in test [10], in test [3], in [4], in test [5] and in test [6] was over 100 µM throughout. Further, the TGI in test [7], in test [8] and in test [9] was over 100 µM in each case.
Turning to `Cc1cc(NS(=O)(=O)c2ccc(Nc3c4ccccc4nc4c(C(=O)Nc5ccc(S(=O)(=O)N=C(N)N)cc5)ccc(Cl)c34)cc2)no1`, the TGI in test [1] was over 100 µM; in test [10], 77.9 µM; in [3], over 100 µM; in test [4], over 100 µM; in [5], 63.2 µM; in test [6] it was over 100 µM. Also, the TGI was over 100 µM in test [7], over 100 µM in [8] and 97.8 µM in test [9].
Consider `CCCCN1CCN(c2ccc3nc(-c4ccc5nc(-c6ccc(OCC)c(OCC)c6)[nH]c5c4)[nH]c3c2)CC1`, for which the GI50 in [2] was 0.538 µM; in [3], 0.314 µM; in test [4] it was 1.22 µM; in test [5], 0.358 µM; in test [6], 0.529 µM; in test [7] it was 1.18 µM. For the same molecule, the GI50 in [9] was 1.29 µM. The TGI is 3.06 µM in test [2]; 1.55 µM in test [3]; 2.61 µM in [4]; 0.85 µM in test [5]; 2.27 µM in test [6]; 2.47 µM in [7]. In addition, in test [9], the TGI turned out to be 3.95 µM.
Take `COc1ccc(C#CC2=C(c3cc(OC)c(OC)c(OC)c3)C(=O)OC2)cc1`: the GI50 in test [2] is 1.03 µM; in test [3], over 50 µM; in test [4] it was 5.98 µM; in test [5], 1.59 µM; in test [6], 2.11 µM; in test [7] it was 8.21 µM. Moreover, the values for the GI50 in [8] and in test [9] were 14.3 µM and 7.88 µM, respectively. Besides, the TGI in test [2] was over 50 µM; in test [3], over 50 µM; in test [4], over 50 µM; in test [5], 10.3 µM; in test [6], over 50 µM; in test [7], 30.1 µM. Also, the TGI is 38.8 µM in test [8] and 27.1 µM in test [9].
`Cc1cc(S(N)(=O)=O)c(S/C(=N\Nc2ccc([N+](=O)[O-])cc2)c2ccc3ccccc3c2)cc1Cl`: the GI50 was 18.6 µM in test [1]; 50.4 µM in test [2]; 22.8 µM in [10]; 44.1 µM in test [3]; 67.5 µM in [4]; 17.5 µM in test [5]. Further, the GI50 in [6] is 28 µM; in test [8] it was 54.1 µM; in test [9], 18.4 µM. For the same molecule, the TGI was 44.1 µM in test [1]; over 100 µM in test [2]; 68.5 µM in [10]; over 100 µM in test [3]; over 100 µM in test [4]; 58.5 µM in test [5]. The TGI in [6] is over 100 µM; in [8], over 100 µM; in test [9], 38.3 µM.
Take `O=C1c2c(c3c4ccccc4[nH]c3c3[nH]c4ccccc4c23)C(=O)N1Cc1ccccc1`: the TGI in test [1] was 5.6 µM; in [2] it was 13.3 µM; in test [10], 14.8 µM; in [3], 10.9 µM; in test [4], 9.02 µM; in test [5], 8.16 µM. The TGI in [6] is 14.2 µM; in test [8], 13.5 µM; in test [9], 6.1 µM.
